Measurements from patent publication US20260242356A1, “BICYCLIC HETEROCYCLIC AMIDE INHIBITORS OF NAv1.8 FOR THE TREATMENT OF PAIN” (priority 2022, published 2026).

Molecular target: T1, human NaV sodium channel α-subunit NaV 1.8 (Homo sapiens, UniProt Q9Y5Y9)
T1 construct: transfected with the full-length cDNA coding for the appropriate human NaV sodium channel α-subunit NaV 1.8; expressed in transfected cells; host or cells: HEK293 cells
Test: NaV inhibition assay, whole-cell patch-clamp (HEKA EPC 9 amplifier)
Assay type: cell-based
Protocol: Electrophysiology experiments were performed on Human Embryonic Kidney 293 cells (HEK) or Chinese hamster ovary cells (CHO) transfected with the full-length cDNA coding for the appropriate human NaV sodium channel α-subunit NaV 1.8. Similarly, experiments are performed on Human Embryonic Kidney 293 cells (HEK) or Chinese hamster ovary cells (CHO) transfected with the full-length cDNA coding for the appropriate human NaV sodium channel α-subunit, including NaV 1.7, NaV 1.6, NaV 1.5, and NaV 1.4.
Sodium currents were measured using the patch-clamp technique in the whole-cell configuration with a HEKA EPC 9 amplifier (HEKA Elektronik Dr. Schulze GmbH, Germany) or can be measured using an IonFlux 16 automated patch clamp system (Fluxion Biosciences, South San Francisco, USA) as previously described by Moran. See, Moran O, Picollo A, Conti F (2003) Tonic and phasic guanidinium toxin-block of skeletal muscle Na channels expressed in Mammalian cells, Biophys J 84(5):2999-3006. For manual patch-clamp experiments, borosilicate glass micropipettes (Sutter Instruments, Novato, CA) were pulled to a tip diameter yielding a resistance of 1.0-2.0 MΩ in the working solutions. The composition of intracellular solution was (in mM): CsF 125, EGTA 10, HEPES 10, NaCl 10, and the pH was adjusted to 7.2 with CsOH. The composition of extracellular solution was (in mM): NaCl 135, KCl 4.5, CaCl2 2, MgCl2 1, HEPES 10, and the pH was adjusted to 7.4 with NaOH. For human NaV 1.8, 0.3-1 μM tetrodotoxin (TTX) was added to the extracellular solution to inhibit native TTX-sensitive current. Peak currents were generally between 0.5-20 nA.
Lyophilized stock of each test article was stored at −20° C., solubilized in DMSO (maximum final concentration 1%) and diluted to the desired concentration with the external solution prior to recording. Current measurements were recorded under continuous perfusion, controlled by syringe pump addition.
The output of the EPC 9 patch-clamp amplifier was filtered with a built-in low-pass, four-pole Bessel filter having a cutoff frequency of 10 kHz and sampled at 20-50 kHz. For both manual and automated recordings, the membrane was kept at a holding potential of between −120 and −80 mV. Pulse stimulation and data acquisition were controlled with the Pulse software (HEKA Elektronik Dr. Schulze GmbH, Germany) or the IonFlux software (Fluxion Biosciences, South San Francisco, USA). All measurements were performed at room temperature (about 20-22° C.). Recordings were made at least 5 min after establishing the whole-cell and voltage-clamp configuration to allow for stabilization of the voltage-dependent properties of the channels. Currents were elicited by 10-50 ms step depolarizations from a holding potential to a value between −40 and +10 mV. Peak currents after channel activation were recorded. […] Data were fit to a four-parameter logistic equation with the Hill slope set to 1 to determine IC50 values and expressed as mean.
For Table 1 and Table 2, all data were measured in HEK cells. Column 1 provides IC50 data for NaV 1.8 as measured using the patch-clamp technique in the whole-cell configuration with a HEKA EPC 9 amplifier, where +++ indicates an IC50 of less than or equal to 20 nM, ++ indicates an IC50 of greater than 20 nM but less that or equal to 100 nM, and + indicates an IC50 of greater than 100 nM but less that or equal to […]. ND means not detectable. NT means not tested.

T1 sequence (Q9Y5Y9 whole entry): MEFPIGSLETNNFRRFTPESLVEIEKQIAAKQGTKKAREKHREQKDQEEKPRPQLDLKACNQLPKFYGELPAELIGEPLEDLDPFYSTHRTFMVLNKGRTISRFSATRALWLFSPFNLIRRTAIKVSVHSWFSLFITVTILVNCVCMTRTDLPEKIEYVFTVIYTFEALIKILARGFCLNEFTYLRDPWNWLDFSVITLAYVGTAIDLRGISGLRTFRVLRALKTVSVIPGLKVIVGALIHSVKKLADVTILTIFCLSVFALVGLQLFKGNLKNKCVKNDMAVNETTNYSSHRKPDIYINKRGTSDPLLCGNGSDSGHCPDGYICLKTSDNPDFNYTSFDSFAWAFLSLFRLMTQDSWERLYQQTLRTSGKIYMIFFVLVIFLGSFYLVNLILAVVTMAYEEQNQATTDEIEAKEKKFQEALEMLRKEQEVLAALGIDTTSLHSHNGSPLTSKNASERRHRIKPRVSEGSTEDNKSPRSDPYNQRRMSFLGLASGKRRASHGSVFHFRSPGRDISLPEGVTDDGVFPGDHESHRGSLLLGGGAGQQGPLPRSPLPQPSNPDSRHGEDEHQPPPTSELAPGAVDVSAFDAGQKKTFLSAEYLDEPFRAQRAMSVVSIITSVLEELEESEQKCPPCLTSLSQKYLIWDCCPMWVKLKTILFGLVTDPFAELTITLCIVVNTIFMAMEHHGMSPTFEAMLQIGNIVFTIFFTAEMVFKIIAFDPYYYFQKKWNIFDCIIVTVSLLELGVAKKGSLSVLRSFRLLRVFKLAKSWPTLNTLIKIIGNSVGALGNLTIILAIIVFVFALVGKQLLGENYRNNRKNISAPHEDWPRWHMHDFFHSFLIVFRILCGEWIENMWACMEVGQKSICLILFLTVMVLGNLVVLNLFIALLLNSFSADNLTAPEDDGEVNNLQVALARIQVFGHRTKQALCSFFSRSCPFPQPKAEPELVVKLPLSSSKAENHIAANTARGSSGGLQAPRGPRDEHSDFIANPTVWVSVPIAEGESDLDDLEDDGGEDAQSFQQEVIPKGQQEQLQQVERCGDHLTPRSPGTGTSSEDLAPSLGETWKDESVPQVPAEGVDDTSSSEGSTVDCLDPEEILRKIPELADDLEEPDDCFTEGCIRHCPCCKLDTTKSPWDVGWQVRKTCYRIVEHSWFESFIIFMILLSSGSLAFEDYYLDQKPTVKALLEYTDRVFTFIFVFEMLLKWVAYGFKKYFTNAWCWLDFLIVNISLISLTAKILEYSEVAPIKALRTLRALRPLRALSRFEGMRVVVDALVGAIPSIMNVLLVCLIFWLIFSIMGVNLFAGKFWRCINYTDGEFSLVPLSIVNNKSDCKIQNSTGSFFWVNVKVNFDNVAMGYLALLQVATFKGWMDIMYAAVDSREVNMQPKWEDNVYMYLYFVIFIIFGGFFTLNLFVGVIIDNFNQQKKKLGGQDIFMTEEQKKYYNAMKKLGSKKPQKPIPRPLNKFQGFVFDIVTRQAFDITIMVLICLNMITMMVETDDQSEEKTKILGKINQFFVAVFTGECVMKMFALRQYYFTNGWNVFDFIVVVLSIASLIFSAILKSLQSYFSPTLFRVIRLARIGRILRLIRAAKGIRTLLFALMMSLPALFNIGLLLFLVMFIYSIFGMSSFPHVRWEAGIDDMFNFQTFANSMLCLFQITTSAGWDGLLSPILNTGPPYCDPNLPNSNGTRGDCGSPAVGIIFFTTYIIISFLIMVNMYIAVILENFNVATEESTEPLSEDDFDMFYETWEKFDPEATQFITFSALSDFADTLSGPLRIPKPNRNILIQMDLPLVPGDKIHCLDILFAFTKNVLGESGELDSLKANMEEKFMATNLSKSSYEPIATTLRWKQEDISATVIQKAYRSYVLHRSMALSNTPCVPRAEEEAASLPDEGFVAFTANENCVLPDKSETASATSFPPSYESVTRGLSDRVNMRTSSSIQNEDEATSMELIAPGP

| Compound | IC50 [nM] | NaV1.8 IC50 (nM) (HEK cells transfected with human NaV 1.8, whole-cell patch-clamp, 0.3-1 μM TTX in extracellular solution, room temperature) |
| --- | --- | --- |
| CS(=N)(=O)c1cccc(NC(=O)c2cc3ccccc3nc2N2CCCC(F)(F)CC2)c1 (stereo not drawn) [Compound 1, 2-(4,4-difluoroazepan-1-yl)-N-(3-(S-methylsulfonimidoyl)phenyl)quinoline-3-carboxamide] | < 20 | – |
| NS(=O)(=O)c1cccc(NC(=O)c2cc3ccccc3nc2N2CCCC(F)(F)CC2)c1 [Compound 2, 2-(4,4-difluoroazepan-1-yl)-N-(3-sulfamoylphenyl)quinoline-3-carboxamide] | < 20 | – |
| Nc1noc2ccc(NC(=O)c3cc4ccccc4nc3N3CCCC(F)(F)CC3)cc12 [Compound 3, N-(3-aminobenzo[d]isoxazol-5-yl)-2-(4,4-difluoroazepan-1-yl)quinoline-3-carboxamide] | < 20 | – |
| NC(=O)c1cccc(NC(=O)c2cc3ccccc3nc2N2CCCC(F)(F)CC2)c1 [Compound 4, N-(3-carbamoylphenyl)-2-(4,4-difluoroazepan-1-yl)quinoline-3-carboxamide] | < 20 | – |
| CC1CN(c2nc3ccccc3cc2C(=O)Nc2cccc(S(N)(=O)=O)c2)CCC1(F)F (stereo not drawn) [Compound 5, 2-(4,4-difluoro-3-methylpiperidin-1-yl)-N-(3-sulfamoylphenyl)quinoline-3-carboxamide] | < 20 | – |
| CS(=O)(=O)c1cccc(NC(=O)c2nc3ccccc3nc2N2CCCC(F)(F)CC2)c1 [Compound 6, 3-(4,4-difluoroazepan-1-yl)-N-(3-methanesulfonylphenyl)quinoxaline-2-carboxamide] | < 20 | – |
| CS(=N)(=O)c1cccc(NC(=O)c2nc3ccccc3nc2N2CCCC(F)(F)CC2)c1 (stereo not drawn) [Compound 7, 3-(4,4-difluoroazepan-1-yl)-N-(3-(S-methylsulfonimidoyl)phenyl)quinoxaline-2-carboxamide] | 20 to 100 | – |
| NS(=O)(=O)c1cccc(NC(=O)c2nc3ccccc3nc2N2CCCC(F)(F)CC2)c1 [Compound 8, 3-(4,4-difluoroazepan-1-yl)-N-(3-sulfamoylphenyl)quinoxaline-2-carboxamide] | 20 to 100 | – |
| NS(=O)(=O)c1cccc(NC(=O)c2cc3cc(F)ccc3nc2N2CCCC(F)(F)CC2)c1 [Compound 9, 2-(4,4-difluoroazepan-1-yl)-6-fluoro-N-(3-sulfamoylphenyl)quinoline-3-carboxamide] | 20 to 100 | – |
| NS(=O)(=O)c1cccc(NC(=O)c2cc3cc(F)c(F)cc3nc2N2CCCC(F)(F)CC2)c1 [Compound 10, 2-(4,4-difluoroazepan-1-yl)-6,7-difluoro-N-(3-sulfamoylphenyl)quinoline-3-carboxamide] | 20 to 100 | – |
| COc1ccc2nc(N3CCCC(F)(F)CC3)c(C(=O)Nc3cccc(S(N)(=O)=O)c3)cc2c1 [Compound 11, 2-(4,4-difluoroazepan-1-yl)-6-methoxy-N-(3-sulfamoylphenyl)quinoline-3-carboxamide] | < 20 | – |
| NS(=O)(=O)c1cccc(NC(=O)c2cc3cc(Cl)ccc3nc2N2CCCC(F)(F)CC2)c1 [Compound 12, 6-chloro-2-(4,4-difluoroazepan-1-yl)-N-(3-sulfamoylphenyl)quinoline-3-carboxamide] | < 20 | – |
| NS(=O)(=O)c1cccc(NC(=O)c2cc3ccc(Cl)cc3nc2N2CCCC(F)(F)CC2)c1 [Compound 13, 7-chloro-2-(4,4-difluoroazepan-1-yl)-N-(3-sulfamoylphenyl)quinoline-3-carboxamide] | 20 to 100 | – |
| NC(=O)c1cccc(NC(=O)c2nc3ccccc3nc2N2CCCC(F)(F)CC2)c1 [Compound 14, N-(3-carbamoylphenyl)-3-(4,4-difluoroazepan-1-yl)quinoxaline-2-carboxamide] | 20 to 100 | – |
| NS(=O)(=O)c1cccc(NC(=O)c2cc3ccncc3nc2N2CCCC(F)(F)CC2)c1 [Compound 15, 2-(4,4-difluoroazepan-1-yl)-N-(3-sulfamoylphenyl)-1,7-naphthyridine-3-carboxamide] | < 20 | – |
| COc1ccc2cc(C(=O)Nc3cccc(S(N)(=O)=O)c3)c(N3CCCC(F)(F)CC3)nc2c1 [Compound 16, 2-(4,4-difluoroazepan-1-yl)-7-methoxy-N-(3-sulfamoylphenyl)quinoline-3-carboxamide] | 20 to 100 | – |
| NS(=O)(=O)c1cccc(NC(=O)c2cc3cc(C(F)(F)F)ccc3nc2N2CCCC(F)(F)CC2)c1 [Compound 17] | < 20 | – |
| NS(=O)(=O)c1cccc(NC(=O)c2cc3c(nc2N2CCCC(F)(F)CC2)CCCC3)c1 [Compound 18, 2-(4,4-difluoroazepan-1-yl)-N-(3-sulfamoylphenyl)-5,6,7,8-tetrahydroquinoline-3-carboxamide] | 20 to 100 | – |
| NS(=O)(=O)c1cccc(NC(=O)c2cc3cccnc3nc2N2CCCC(F)(F)CC2)c1 [Compound 19, 2-(4,4-difluoroazepan-1-yl)-N-(3-sulfamoylphenyl)-1,8-naphthyridine-3-carboxamide] | – | + (+ indicates an IC50 of greater than 100 nM but less that or equal to 1.5 M) |
| NS(=O)(=O)c1cccc(NC(=O)c2cc3cnccc3nc2N2CCCC(F)(F)CC2)c1 [Compound 20, 2-(4,4-difluoroazepan-1-yl)-N-(3-sulfamoylphenyl)-1,6-naphthyridine-3-carboxamide] | 20 to 100 | – |
| NS(=O)(=O)c1cccc(NC(=O)c2cc3ccc(F)cc3nc2N2CCCC(F)(F)CC2)c1 [Compound 28, 2-(4,4-difluoroazepan-1-yl)-7-fluoro-N-(3-sulfamoylphenyl)quinoline-3-carboxamide] | < 20 | – |
